From patent US4176185A, “Spiro-quinolylhydantoins” (Pfizer Inc., priority 1979, dated 1979)

How the values were obtained:
[1] = tested on: sorbitol accumulation in the sciatic nerve; experiment: inhibition of sorbitol accumulation in the sciatic nerve of streptozotocinized (diabetic) rats; assay type: in vivo, rat; conditions: measured 27 h after induction of diabetes, vs untreated
Source text: (§1) The activity of the compounds of the present invention as agents for the control of chronic diabetic complications may be determined by a number of standard biological or pharmacological tests. Suitable tests include (1) measuring their ability to inhibit the enzyme activity of isolated aldose reductase; (2) measuring their ability to reduce or inhibit sorbitol accumulation in the sciatic nerve of acutely streptozotocinized (i.e. diabetic) rats; (3) measuring their ability to reverse already-elevated sorbitol levels in the sciatic nerve and lens of chronic streptozotocin-induced diabetic rats; (4) measuring their ability to prevent or inhibit galactitol formation in the lens of acutely galactosemic rats; and (5) measuring their ability to delay cataract formation and reduce the severity of lens opacities in chronic galactosemic rats.
The compounds of Examples 3 and 6 were tested for their ability to reduce or inhibit sorbitol accumulation in the sciatic nerve of streptozotocinized (i.e. diabetic) rats by the procedure essentially described in U.S. Pat. No. 3,821,383. In the present study, the amount of sorbitol accumulation in the sciatic nerves was measured 27 hours after induction of diabetes. The compounds were administered orally at the dose levels indicated at 4, 8 and 24 hours following the administration of streptozotocin. […]

aldose reductase = experiment: inhibition of aldose reductase enzyme activity; assay type: biochemical; conditions: partially purified aldose reductase from calf lens
Source text: as §1
The compounds of Examples 3 and 6 were tested for their ability to reduce or inhibit aldose reductase enzyme activity, following the procedure described in U.S. Pat. No. 3,821,383 and based on the procedure of Hayman et. al., Journal of Biological Chemistry, 240, 877 (1965). The substrate employed was partially purified aldose reductase enzyme obtained from calf lens. The results obtained with each compound at a concentration of 10^-4 M are expressed as percent inhibition of enzyme activity.

SMILES	% Inhibition (sorbitol accumulation in sciatic nerve) ([1]; 10 mg/kg oral at 4, 8 and 24 h after streptozotocin) [%]	% Inhibition at 10^-4 M (aldose reductase enzyme activity) (aldose reductase) [%]	% Inhibition (sorbitol accumulation in sciatic nerve) ([1]; 1.5 mg/kg oral at 4, 8 and 24 h after streptozotocin) [%]
O=C1NC(=O)C2(CCOc3c2ccc2ncccc32)N1 (stereo not shown) [Example 6]	92	94	–
O=C1NC(=O)C2(CCOc3c2ccc2cccnc32)N1 (stereo not shown) [Example 3]	–	75	27
